For data set [1], the target named is T1, Min Elp3 (Methanocaldococcus infernus, UniProt D5VRB9).
T1 construct: gene Metin_0452; E. coli codon-optimized gene, N-terminal 6xHis tag with TEV site (pET28a-tev), tag kept for MST; E. coli BL21(DE3) host with isc operon; anaerobically purified, [4Fe-4S] cluster chemically reconstituted
T1 sequence (D5VRB9 1-534): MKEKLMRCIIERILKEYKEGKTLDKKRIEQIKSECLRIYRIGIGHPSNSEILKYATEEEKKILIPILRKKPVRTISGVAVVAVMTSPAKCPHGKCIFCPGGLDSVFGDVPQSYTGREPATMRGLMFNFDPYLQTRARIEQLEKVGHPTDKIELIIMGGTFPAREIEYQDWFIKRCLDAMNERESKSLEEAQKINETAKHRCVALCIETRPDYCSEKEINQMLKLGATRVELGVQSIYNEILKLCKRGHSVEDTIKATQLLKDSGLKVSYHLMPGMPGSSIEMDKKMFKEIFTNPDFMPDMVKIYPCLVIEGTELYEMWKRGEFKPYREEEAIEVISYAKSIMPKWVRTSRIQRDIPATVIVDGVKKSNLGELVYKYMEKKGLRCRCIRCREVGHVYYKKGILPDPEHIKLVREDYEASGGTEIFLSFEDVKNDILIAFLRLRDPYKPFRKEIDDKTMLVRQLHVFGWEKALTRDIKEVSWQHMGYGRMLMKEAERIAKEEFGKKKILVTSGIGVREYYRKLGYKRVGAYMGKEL
Kind of data set: microscale thermophoresis, hill fit. It counts as binding. Particulars: anaerobic, pH 7.5, room temperature; His-tagged protein labelled with iFluor 647-Tris NTA; no tRNA.

The target in data set [2] is T2, Min Elp3 (Methanocaldococcus infernus, UniProt D5VRB9, K302A).
T2 construct: gene Metin_0452; E. coli codon-optimized gene, N-terminal 6xHis tag with TEV site (pET28a-tev), tag kept for MST; E. coli BL21(DE3) host with isc operon; anaerobically purified, [4Fe-4S] cluster chemically reconstituted
Kind of data set: microscale thermophoresis, hill fit. The data set is classed as binding. The settings on record: anaerobic, pH 7.5, room temperature; His-tagged protein labelled with iFluor 647-Tris NTA; no tRNA. In general terms: Microscale thermophoresis detects binding through changes in fluorescence in a small temperature gradient.

Data set [3] has as its target T3, Min Elp3 (Methanocaldococcus infernus, UniProt D5VRB9, E207A).
T3 construct: gene Metin_0452; E. coli codon-optimized gene, N-terminal 6xHis tag with TEV site (pET28a-tev), tag kept for MST; E. coli BL21(DE3) host with isc operon; anaerobically purified, [4Fe-4S] cluster chemically reconstituted
Kind of data set: microscale thermophoresis, hill fit. It counts as binding. Particulars: anaerobic, pH 7.5, room temperature; His-tagged protein labelled with iFluor 647-Tris NTA; no tRNA.

Data set [4] deals with T4, Min Elp3 (Methanocaldococcus infernus, UniProt D5VRB9, Y304A).
T4 construct: gene Metin_0452; E. coli codon-optimized gene, N-terminal 6xHis tag with TEV site (pET28a-tev), tag kept for MST; E. coli BL21(DE3) host with isc operon; anaerobically purified, [4Fe-4S] cluster chemically reconstituted
Kind of data set: microscale thermophoresis, hill fit. It counts as binding. Particulars: anaerobic, pH 7.5, room temperature; His-tagged protein labelled with iFluor 647-Tris NTA; no tRNA.

Data set [5] addresses T5, Min Elp3 (Methanocaldococcus infernus, UniProt D5VRB9, M156W).
T5 construct: gene Metin_0452; E. coli codon-optimized gene, N-terminal 6xHis tag with TEV site (pET28a-tev), tag kept for MST; E. coli BL21(DE3) host with isc operon; anaerobically purified, [4Fe-4S] cluster chemically reconstituted
Kind of data set: microscale thermophoresis, hill fit. It counts as binding. The settings on record: anaerobic, pH 7.5, room temperature; His-tagged protein labelled with iFluor 647-Tris NTA; no tRNA.

Data set [6] addresses T6, Min Elp3 WT (Methanocaldococcus infernus, UniProt D5VRB9 1-534).
T6 sequence: T1 sequence (D5VRB9 1-534)
Kind of data set: EMSA; EMSA: 250 nM tRNA, 0-20 uM Elp3, 100 mM HEPES pH 7.5, 750 mM NaCl, 25 mM DTT, 20 °C 30 min; 5% TBE gel at 4 °C. Particulars: protein: recombinant; tags: N-terminal 6xHis-TEV site (pET28a-tev); tRNA fold, annealed. For orientation: Mobility shift assays separate free from complexed probe on a gel.

T5 sequence (D5VRB9 whole entry M156W): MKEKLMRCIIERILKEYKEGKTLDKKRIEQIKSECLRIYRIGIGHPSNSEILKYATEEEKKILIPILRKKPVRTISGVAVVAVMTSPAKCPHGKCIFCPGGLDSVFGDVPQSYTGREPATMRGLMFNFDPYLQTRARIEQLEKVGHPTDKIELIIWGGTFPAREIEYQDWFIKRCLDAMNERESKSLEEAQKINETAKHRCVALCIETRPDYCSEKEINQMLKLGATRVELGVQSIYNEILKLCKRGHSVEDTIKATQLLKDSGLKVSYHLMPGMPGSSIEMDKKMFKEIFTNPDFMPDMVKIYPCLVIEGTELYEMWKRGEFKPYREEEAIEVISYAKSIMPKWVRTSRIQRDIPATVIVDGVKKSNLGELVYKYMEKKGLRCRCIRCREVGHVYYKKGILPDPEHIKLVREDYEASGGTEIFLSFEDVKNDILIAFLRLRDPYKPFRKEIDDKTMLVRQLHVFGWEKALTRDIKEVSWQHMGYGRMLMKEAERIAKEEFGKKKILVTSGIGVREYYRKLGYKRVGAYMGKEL
T2 sequence (D5VRB9 whole entry K302A): as the sequence (D5VRB9 whole entry M156W) above, with W156M, K302A counted along it
T4 sequence (D5VRB9 whole entry Y304A): as the sequence (D5VRB9 whole entry M156W) above, with W156M, Y304A counted along it
T3 sequence (D5VRB9 whole entry E207A): as the sequence (D5VRB9 whole entry M156W) above, with W156M, E207A counted along it

On to `C[S+](CC[C@H](N)C(=O)O)C[C@H]1O[C@@H](n2cnc3c(N)ncnc32)[C@H](O)[C@@H]1O` (stereo partly drawn) [SAM], for which the KD entry was “Elp3-SAM binding was measured by triplicate microscale thermophoresis (MST) assays” in data set [1]; “K302A (light blue squares), and Y304A (cyan triangles) mutants bind cofactor SAM” in data set [2]; “E207A (dark blue triangles), K302A (light blue squares), and Y304A (cyan triangles) mutants bind cofactor SAM” in data set [3]; “Y304A (cyan triangles) mutants bind cofactor SAM with comparable affinity to WT Elp3” in data set [4]; “Elp3 M156W (light blue squares) binds cofactor SAM with comparable affinity to WT Elp3” in data set [5].

B1: tRNA ArgUCU (structured_RNA)
RNA: GGACCCGUAGCCUAGCCUGGAUAGGGCACCGGCCUUCUAAGCCGGGGGUCGGGGGUUCAAAUCCCCCCGGGUCCGCCA
For B1, the binding result in data set [6] is recorded as “binds”.

The values are drawn from PMC13315578.
